Experimental data from patent US20030224978A1, “Compounds and methods for modulating apoptosis” (McGill University, priority 1996, published 2003).
Entries after “also recorded” stand apart in the source; their conditions may differ. Positions of bridges follow the written chain, without caps; N, C: chain ends. Residues, ends and D or L forms follow the SMILES beside them.

Legend:
in vitro [1] = type: cell-based; conditions: human
Experimental: (§1) N-Ac-CHAVC-NH2 (SEQ ID NO:10) and the control peptide N-Ac-CHGVC-NH2 (SEQ ID NO:20) were evaluated for possible cytotoxic effects on human microvascular endothelial (HMVEC; Clonetics), human umbilical vein endothelial (HUVEC; ATCC #CRL-1730), IAFp2 (human fibroblast cell line; Institute Armand-Frapier, Montreal, Quebec), WI-38 (human fibroblast cell line; ATCC #CCL-75), MDA-MB231 (human breast cancer cell line; ATCC #HTB-26), and PC-3 (human prostate cancer cell line; ATCC #CRL-1435) cells utilizing the MTT assay (Plumb et al., Cancer Res. 49:4435-4440, 1989). Neither of the peptides was cytotoxic at concentrations up to and including 100 μM. Similarly, neither of the peptides was capable of inhibiting the proliferation of the above cell lines at concentrations up to 100 μM, as judged by ^3H-thymidine incorporation assays.

in vitro [2] = type: cell-based; conditions: human; remark: listed apart in the source
Experimental: as §1

in vitro [3] = type: cell-based; conditions: human; remark: listed apart in the source
Experimental: as §1

in vitro [4] = type: cell-based; conditions: human; remark: listed apart in the source
Experimental: as §1

chick N-cadherin = target: T1, chick N-cadherin (Gallus gallus, UniProt P10288); assay: N-cadherin dependent neurite outgrowth of rat cerebellar neurons on N-cadherin expressing 3T3 cells (Example 14); type: cell-based; conditions: for inhibition at 250 µg/mL: NIH3T3, 250 μg/mL, 16-18 hours; for inhibitory activity on N-cadherin dependent neurite outgrowth, in words: Tables 8 and 9, 250 or 125 μg/mL; for reduction in inhibitory activity on flanking HAV with E-cadherin amino acids: Table 8, 250 μg/mL; for activity on N-cadherin dependent neurite outgrowth at lower concentration, in words: concentrations of 125 µg/mL or below
T1 construct: expressed in transfected cells; host or cells: 3T3 fibroblasts
T1 sequence (P10288 165-912): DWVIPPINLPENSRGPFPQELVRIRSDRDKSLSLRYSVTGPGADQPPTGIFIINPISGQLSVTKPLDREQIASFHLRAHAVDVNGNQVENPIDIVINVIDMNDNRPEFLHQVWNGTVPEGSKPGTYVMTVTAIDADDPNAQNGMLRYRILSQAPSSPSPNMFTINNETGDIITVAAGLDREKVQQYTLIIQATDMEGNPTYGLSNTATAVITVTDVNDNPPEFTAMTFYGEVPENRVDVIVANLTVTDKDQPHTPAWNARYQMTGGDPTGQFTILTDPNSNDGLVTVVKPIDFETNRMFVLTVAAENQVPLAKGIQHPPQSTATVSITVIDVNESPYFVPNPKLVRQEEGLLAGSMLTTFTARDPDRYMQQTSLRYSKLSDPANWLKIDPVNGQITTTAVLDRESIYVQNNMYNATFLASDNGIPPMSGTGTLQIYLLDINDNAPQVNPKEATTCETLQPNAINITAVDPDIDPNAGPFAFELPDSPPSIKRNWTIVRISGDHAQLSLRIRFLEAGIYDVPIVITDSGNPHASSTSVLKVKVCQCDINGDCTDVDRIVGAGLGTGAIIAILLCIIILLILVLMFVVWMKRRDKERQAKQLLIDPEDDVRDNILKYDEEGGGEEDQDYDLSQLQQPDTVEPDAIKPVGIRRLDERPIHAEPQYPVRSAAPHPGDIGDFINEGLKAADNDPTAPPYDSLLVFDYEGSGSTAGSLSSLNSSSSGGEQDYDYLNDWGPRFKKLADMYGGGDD
Experimental: Cell culture and neurite outgrowth assays. Co-cultures of cerebellar neurons on monolayers of control 3T3 cells and monolayers of transfected 3T3 cells that express physiological levels of chick N-cadherin or human L1 were established as previously described (Williams et al., Neuron 13:583-594, 1994). In brief, 80,000 3T3 cells (control and transfected) were plated into individual chambers of an eight-chamber tissue culture slide coated with polylysine and fibronectin and cultured in DMEM/10% FCS. After 24 hours, when confluent monolayers had formed, the medium was removed and 3000 cerebellar neurons isolated from post-natal day 2-3 rats were plated into each well in SATO media (Doherty et al., Nature 343:464-466, 1990) supplemented with 2% FCS. All of the test peptides were added immediately before the neurons as a 2×stock prepared in SATO/2% FCS. The co-cultures were maintained for 16-18 hours, at which time they were fixed and immunostained for GAP-43 which is present only in the neurons and delineates the neuritic processes. The mean length of the longest neurite per cell was measured for 150-200 neurons sampled in replicate cultures as previously described (Williams et al., Neuron 13:583-594, 1994). […] Dose-response curves were evaluated and the EC50 values determined.
Effects of cyclic HAV peptides on N-cadherin function. The ability of N-Ac-CHAVC-NH2 (SEQ ID NO:10; compound 1) to inhibit neurite outgrowth was initially tested. This cyclic peptide has the cadherin CAR sequence (HAV) and no flanking amino acid residues. Neurons were cultured on confluent monolayers of control (untransfected) and N-cadherin expressing 3T3 cells for 16-18 hours. The cells were then fixed and the length of the longest neurite on 150-200 neurons was determined by standard assay, as described above. FIG. 24 gives the mean neurite length in a representative experiment where cerebellar neurons have been cultured over control and N-cadherin expressing cells. In the absence of peptide, the mean length of the longest neurite per cell was approximately double on the N-cadherin expressing cells, as compared to 3T3 cells. This response requires N-cadherin function in both the neuron and transfected fibroblast.

[5] = test system: angiogenesis in chick embryonic chorioallantoic membranes; assay: Chick chorioallantoic membrane angiogenesis assay; type: in vivo; conditions: 3, 17, and 33 μg/mesh
Experimental: The chick chorioallantoic membrane assay was used to assess the effects of cyclic peptides on angiogenesis (Iruela-Arispe et al., Molecular Biology of the Cell 6:327-343, 1995). Cyclic peptides were embedded in a mesh composed of vitrogen at concentrations of 3, 17, and 33 μg/mesh. The meshes were then applied to 12-day-old chick embryonic chorioallantoic membranes. After 24 hours, the effects of the peptides on angiogenesis were assessed by computer assisted morphometric analysis.
For each concentration of cyclic peptide, the percent inhibition of angiogenesis (relative to the level of angiogenesis in the absence of cyclic peptide) is provided. Assays were performed in the presence (+) or absence (−) of […] VEGF. For example, the cyclic peptide N-Ac-CHAVC-NH2 (SEQ ID NO:10) inhibited angiogenesis by 46%, 51%, and 51% at concentrations of 3, 17, and 33 μg/mesh, respectively.

Row | Molecule | IC50 (in vitro [1]) [µM] | IC50 (in vitro [2]) [µM] | IC50 (in vitro [3]) [µM] | IC50 (in vitro [4]) [µM] | inhibition at 250 µg/mL (chick N-cadherin) [%] | further results
1 | CC[C@H](C)[C@@H]1NC(=O)[C@H](CC(=O)O)NC(=O)[C@H](C(C)C)NC(=O)[C@H](C)NC(=O)[C@H](Cc2c[nH]cn2)NC(=O)[C@H](C)NC(=O)[C@@H](N)CSSC[C@@H](C(N)=O)NC1=O (H-CAHAVDIC-NH2; disulfide 1-8) | > 100 | > 100 | > 100 | > 100 | -3.7 ± 2.9 | inhibitory activity on N-cadherin dependent neurite outgrowth, in words (chick N-cadherin): total loss of activity; inhibitory activity on N-cadherin dependent neurite outgrowth, in words (chick N-cadherin; listed as compound 15): lost activity
2 | CC(C)[C@@H]1NC(=O)[C@H](C)NC(=O)[C@H](Cc2c[nH]cn2)NC(=O)[C@H](C)NC(=O)[C@@H](N)CSSC[C@@H](C(N)=O)NC(=O)[C@H](CC(=O)O)NC1=O [H-CAHAVDC-NH2, H-Cys-Ala-His-Ala-Val-Asp-Cys-NH2] (H-CAHAVDC-NH2; disulfide 1-7) | > 100 | > 100 | > 100 | > 100 | 1.3 ± 13 | 
3 | CC(C)[C@@H]1NC(=O)CNC(=O)[C@H](Cc2c[nH]cn2)NC(=O)[C@H](C)NC(=O)[C@@H](N)CSSC[C@@H](C(N)=O)NC(=O)[C@H](CC(=O)O)NC1=O [H-CAHGVDC-NH2, reference compound] (H-CAHGVDC-NH2; disulfide 1-7) | > 100 | > 100 | > 100 | > 100 | 5.7 ± 7.8 | 
4 | CC(=O)N[C@H]1CSSC[C@@H](C(N)=O)NC(=O)[C@H](CC(=O)O)NC(=O)[C@H](C(C)C)NC(=O)[C@H](C)NC(=O)[C@H](Cc2cnc[nH]2)NC1=O [N-Ac-CHAVDC-NH2] (Ac-CHAVDC-NH2; disulfide 1-6) |  |  |  |  |  | EC50 (chick N-cadherin; from dose-response curve): 93 µM
5 | CC(=O)N[C@H]1CSSC[C@@H](C(N)=O)NC(=O)[C@H](CO)NC(=O)[C@H](C(C)C)NC(=O)CNC(=O)[C@H](Cc2c[nH]cn2)NC1=O [N-Ac-CHGVSC-NH2, reference compound] (Ac-CHGVSC-NH2; disulfide 1-6) | > 100 | > 100 | > 100 | > 100 | -6.7 ± 5.8 | 
6 | CC(=O)N[C@H]1CSSC[C@@H](C(N)=O)NC(=O)[C@H](C(C)C)NC(=O)[C@H](C)NC(=O)[C@H](Cc2c[nH]cn2)NC(=O)[C@H](CO)NC1=O [N-Ac-CSHAVC-NH2, N-Ac-Cys-Ser-His-Ala-Val-Cys-NH2] (Ac-CSHAVC-NH2; disulfide 1-6) | > 100 | > 100 | > 100 | > 100 | 11 ± 8.6 | reduction in inhibitory activity on flanking HAV with E-cadherin amino acids (chick N-cadherin): complete
7 | CC(=O)N[C@H]1CSSC[C@@H](C(N)=O)NC(=O)[C@H](C(C)C)NC(=O)CNC(=O)[C@H](Cc2c[nH]cn2)NC(=O)[C@H](CO)NC1=O [N-Ac-CSHGVC-NH2, reference compound] (Ac-CSHGVC-NH2; disulfide 1-6) | > 100 | > 100 | > 100 | > 100 | 12.5 ± 7.5 | 
8 | CC(=O)N[C@H]1CSSC[C@@H](C(N)=O)NC(=O)[C@H](Cc2c[nH]cn2)NC(=O)[C@H](C)NC(=O)[C@H](C(C)C)NC1=O [N-Ac-CVAHC-NH2] (Ac-CVAHC-NH2; disulfide 1-5 (inferred)) | > 100 | > 100 | > 100 | > 100 |  | inhibition of angiogenesis, in words [5]: relatively inactive
9 | CC(=O)N[C@H]1CSSC[C@@H](C(N)=O)NC(=O)[C@H](Cc2c[nH]cn2)NC(=O)CNC(=O)[C@H](C(C)C)NC1=O [N-Ac-CVGHC-NH2, reference compound] (Ac-CVGHC-NH2; disulfide 1-5 (inferred)) | > 100 | > 100 | > 100 | > 100 |  | 
10 | CC[C@H](C)[C@@H]1NC(=O)[C@H](CC(=O)O)NC(=O)[C@H](C(C)C)NC(=O)CNC(=O)[C@H](Cc2c[nH]cn2)NC(=O)[C@H](C)NC(=O)[C@@H](NC(C)=O)CSSC[C@@H](C(N)=O)NC1=O [reference compound] (Ac-CAHGVDIC-NH2; disulfide 1-8) | > 100 | > 100 | > 100 | > 100 | 4.8 ± 6.5 | 
11 | CC[C@H](C)[C@@H]1NC(=O)[C@H](CC(=O)O)NC(=O)[C@H](C(C)C)NC(=O)CNC(=O)[C@H](Cc2c[nH]cn2)NC(=O)[C@H](C)NC(=O)[C@@H](N)CSSC[C@@H](C(N)=O)NC1=O [reference compound] (H-CAHGVDIC-NH2; disulfide 1-8) | > 100 | > 100 | > 100 | > 100 | 7.2 ± 8.1 | 
12 | N-Ac-CAHAVC-NH2 (disulfide 1-6 (inferred)) |  |  |  |  |  | activity on N-cadherin dependent neurite outgrowth at lower concentration, in words (chick N-cadherin): lost activity
13 | N-Ac-CHAVDINGC-NH2 (disulfide 1-9 (inferred)) |  |  |  |  |  | inhibitory activity on N-cadherin dependent neurite outgrowth, in words (chick N-cadherin): completely abrogates activity
14 | N-Ac-CHAVSSC-NH2 (disulfide 1-7 (inferred)) |  |  |  |  |  | reduction in inhibitory activity on flanking HAV with E-cadherin amino acids (chick N-cadherin): substantial
15 | N-Ac-CLRAHAVC-NH2 (disulfide 1-8 (inferred)) |  |  |  |  |  | inhibitory activity on N-cadherin dependent neurite outgrowth, in words (chick N-cadherin): detrimental affect
16 | N-Ac-CLRAHAVDC-NH2 (disulfide 1-9 (inferred)) |  |  |  |  |  | inhibitory activity on N-cadherin dependent neurite outgrowth, in words (chick N-cadherin): potent inhibitors of neurite outgrowth; also recorded: partial recovery of activity; activity on N-cadherin dependent neurite outgrowth at lower concentration, in words (chick N-cadherin): lost activity
17 | N-Ac-CRAHAVDC-NH2 (disulfide 1-8 (inferred)) |  |  |  |  |  | inhibitory activity on N-cadherin dependent neurite outgrowth, in words (chick N-cadherin): completely eliminated inhibitory activity
18 | N-Ac-CSHAVSC-NH2 (disulfide 1-7 (inferred)) |  |  |  |  |  | reduction in inhibitory activity on flanking HAV with E-cadherin amino acids (chick N-cadherin): complete
